Measured values as given in patent publication US20250249001A1, “METHODS OF TREATING SUBSTANCE USE DISORDER WITH 4-(3-CYANOPHENYL)-6-PYRIDINYLPYRIMIDINE MGLU5 NEGATIVE ALLOSTERIC MODULATORS” (Tempero Bio, Inc., priority 2022, published 2025).

Tested on: operant alcohol self-administration in Wistar rats
Test: Operant alcohol self-administration, repeated oral pellet treatment (A-B-A)
Type: in vivo
Conditions: 10 mg/kg oral in palatable food pellet, 2-hr before daily sessions, 7 days (Days 6-12)
Method: Repeated treatment with Compound 1. To evaluate effects of repeated treatment with Compound 1 on operant alcohol self-administration, a separate group of rats (n=12) was trained to self-administer alcohol as described above. After operant behavior reached a stable baseline, habituation to i.p. injections were conducted as described above. […] Another group of rats (n=12) was then trained to self-administer alcohol and a new injection protocol (e.g., 2-hr pretreatment time) was initiated. […] In a final attempt to evaluate repeated treatment, we re-established baseline behavior in the same rats and administered Compound 1 (0 and 10 mg/kg) orally in a palatable food pellet as previously reported. Doses were administered according to an A-B-A (vehicle-Compound 1-vehicle) experimental design with 5 consecutive days of exposure to each vehicle treatment and 7 days of exposure to Compound 1. There was no observable stress response using this method of exposure. Operant self-administration (number of alcohol reinforced lever presses) was recorded during daily 15-min test sessions (n=12 rats).
In a final attempt to salvage the study, injections were halted in the second group of rats and EtOH self-administration behavior was allowed to stabilize over a 1-week period. […]

N#Cc1cc(Cl)cc(-c2cc(-c3ccc(F)cn3)ncn2)c1 [Compound 1, 3-chloro-5-[6-(5-fluoropyridin-2-yl)pyrimidin-4-yl]benzonitrile]
EtOH reinforced lever press responses, repeated treatment: failed to alter operant alcohol self-administration
